Results published in the supplement of paper PMC13380429.

How the values were obtained:
Conditions in all cases: 72 h
HepG2 [1] = assay: cell viability relative to DMSO; higher = less toxic
Vero E6 [2] = assay: as above
Calu-3 [3] = assay: as above
Caco-2 [4] = assay: as above
U2OS [5] = assay: as above
Vero E6 [6] = assay: relative viability EC50 (midpoint between 100% and the lowest measured viability); higher = less toxic
Calu-3 [7] = assay: as above
HepG2 [8] = assay: drug sensitivity score (DSS) for viability; higher = more toxic; extreme values may be limits of the assay
Vero E6 [9] = assay: as above
Calu-3 [10] = assay: as above
Caco-2 [11] = assay: as above
U2OS [12] = assay: as above
HepG2 [13] = assay: relative viability EC50 (midpoint between 100% and the lowest measured viability); higher = less toxic
U2OS [14] = assay: as above
Caco-2 [15] = assay: as above

Row | Structure (SMILES) | cell viability (HepG2 [1]; 1 nM) [%] | cell viability (HepG2 [1]; 10 nM) [%] | cell viability (HepG2 [1]; 100 nM) [%] | cell viability (HepG2 [1]; 1000 nM) [%] | cell viability (HepG2 [1]; 10000 nM) [%] | cell viability (Vero E6 [2]; 1 nM) [%] | cell viability (Vero E6 [2]; 10 nM) [%] | cell viability (Vero E6 [2]; 100 nM) [%] | cell viability (Vero E6 [2]; 1000 nM) [%] | cell viability (Vero E6 [2]; 10000 nM) [%] | cell viability (Calu-3 [3]; 1 nM) [%] | cell viability (Calu-3 [3]; 10 nM) [%] | cell viability (Calu-3 [3]; 100 nM) [%] | cell viability (Calu-3 [3]; 1000 nM) [%] | cell viability (Calu-3 [3]; 10000 nM) [%] | cell viability (Caco-2 [4]; 1 nM) [%] | cell viability (Caco-2 [4]; 10 nM) [%] | cell viability (Caco-2 [4]; 100 nM) [%] | cell viability (Caco-2 [4]; 1000 nM) [%] | cell viability (Caco-2 [4]; 10000 nM) [%] | cell viability (U2OS [5]; 1 nM) [%] | cell viability (U2OS [5]; 10 nM) [%] | cell viability (U2OS [5]; 100 nM) [%] | cell viability (U2OS [5]; 1000 nM) [%] | cell viability (U2OS [5]; 10000 nM) [%] | relative viability EC50 (Vero E6 [6]) [µM] | relative viability EC50 (Calu-3 [7]) [µM] | drug sensitivity score (HepG2 [8]) | drug sensitivity score (Vero E6 [9]) | drug sensitivity score (Calu-3 [10]) | drug sensitivity score (Caco-2 [11]) | drug sensitivity score (U2OS [12]) | relative viability EC50 (HepG2 [13]) [µM] | relative viability EC50 (U2OS [14]) [µM] | relative viability EC50 (Caco-2 [15]) [µM]
1 | Cc1ccc(-c2nn(C(C)(C)C)c3ncnc(N)c23)cc1 [PP-1] | 106 | 91.8 | 92.8 | 89.3 | 69 | 107 | 104 | 103 | 105 | 48.7 | 85.9 | 96.9 | 94 | 91.2 | 43.9 | 102 | 96.2 | 103 | 91.5 | 59.7 | 100 | 94.8 | 104 | 90.9 | 55 | 3.66 | 1.94 | 2.3 | 2.3 | 4.5 | 3.4 | 3.8 | – | – | –
2 | Cc1ccc(C(=O)c2cc(O)c(O)c([N+](=O)[O-])c2)cc1 [tolcapone] | 106 | 117 | 105 | 109 | 97.2 | 109 | 102 | 99.8 | 100 | 104 | – | – | – | – | – | – | – | – | – | – | – | – | – | – | – | > 10 | – | 0 | 0 | – | – | – | > 10 | – | –
3 | O=C1NC(=O)[C@@]2(CCOc3ccc(F)cc32)N1 [sorbinil] | – | – | – | – | – | – | – | – | – | – | 103 | 120 | 87.5 | 113 | 102 | – | – | – | – | – | 96.7 | 105 | 97 | 102 | 96.5 | – | > 10 | – | – | 0 | – | 0 | – | > 10 | –
4 | NCCNc1ccc(NCCN)c2c1C(=O)c1ccncc1C2=O [pixantrone] | 100 | 94.8 | 98.9 | 90.2 | 62.9 | 104 | 104 | 104 | 94.4 | 97 | 93.4 | 120 | 95.4 | 102 | 82.5 | 87.4 | 105 | 96.7 | 88.1 | 74.9 | 100 | 101 | 96.5 | 103 | 87.2 | > 10 | > 10 | 3.3 | 0 | 0.3 | 1.9 | 0 | – | > 10 | –
5 | O=C1NC(=O)c2cc(Nc3ccccc3)c(Nc3ccccc3)cc21 | 109 | 106 | 105 | 100 | 56.4 | 96.3 | 99.2 | 98.6 | 97.4 | 86.3 | 108 | 96.9 | 106 | 98.5 | 89.3 | 92.3 | 101 | 91.7 | 102 | 82.5 | – | – | – | – | – | > 10 | > 10 | 2.2 | 0.3 | 0 | 0.3 | – | – | – | > 10
6 | Nc1ncnc2[nH]nc(Nc3ccc(F)cc3)c12 | 114 | 101 | 108 | 96.5 | 66.2 | 107 | 103 | 99.8 | 101 | 54.4 | 102 | 101 | 101 | 95.6 | 79.2 | 95 | 93.5 | 106 | 93.1 | 73.4 | 98.5 | 98.9 | 98.4 | 96 | 83 | – | > 10 | 2.1 | 2.3 | 1.2 | 2.1 | 0.8 | – | > 10 | –
7 | COc1cccc(C=NCCN=Cc2cccc(OC)c2[O-])c1[O-].[Cl-].[Mn+3] [EUK-134] | 95 | 109 | 99.5 | 101 | 72.3 | 98.4 | 102 | 99.3 | 105 | 96 | 110 | 87.9 | 102 | 94 | 99.3 | 94.7 | 89 | 91.5 | 92 | 85.6 | 101 | 96.6 | 107 | 99.3 | 99 | > 10 | > 10 | 1.1 | 0 | 0 | 0 | 0 | – | > 10 | > 10
8 | CCOC(=O)[C@H](C)C[C@@H](Cc1ccc(-c2ccccc2)cc1)NC(=O)CCC(=O)O [sacubitril] | – | – | – | – | – | 93.6 | 106 | 91.3 | 94.5 | 107 | 91.6 | 96.6 | 99.4 | 97.3 | 98.5 | 94.4 | 95.3 | 101 | 92.5 | 100 | 101 | 98.5 | 96 | 97.3 | 97.5 | > 10 | > 10 | – | 0 | 0 | 0 | 0 | – | > 10 | > 10
9 | N#Cc1ccc2[nH]cc(CCCCN3CCN(c4ccc5oc(C(N)=O)cc5c4)CC3)c2c1 [vilazodone] | 107 | 99.9 | 99.5 | 95.9 | 66.4 | 92.7 | 99.6 | 95.3 | 91.2 | 71.6 | 87.5 | 88.7 | 74.5 | 93.6 | 86.6 | 96.6 | 106 | 104 | 101 | 83 | 99.4 | 108 | 97.7 | 101 | 92 | – | > 10 | 2.2 | 2 | 0 | 0.3 | 0 | – | > 10 | > 10
10 | CC(C)(O)CC[C@@H](O)[C@](C)(O)[C@H]1CC[C@@]2(O)C3=CC(=O)[C@@H]4C[C@@H](O)[C@@H](O)C[C@]4(C)[C@H]3CC[C@]12C [20-hydroxyecdysone] | – | – | – | – | – | – | – | – | – | – | 93.6 | 101 | 91 | 102 | 114 | 98.8 | 98.4 | 85.5 | 96.8 | 97.1 | 98 | 101 | 99.2 | 99.7 | 102 | – | > 10 | – | – | 0 | 0 | 0 | – | > 10 | > 10
11 | O=C1Nc2cc(Cl)c(Cl)cc2N2CCNC[C@H]12 | – | – | – | – | – | 104 | 100 | 100 | 99.1 | 95.7 | 103 | 95.1 | 97.3 | 97.7 | 92.5 | 110 | 100 | 102 | 92.2 | 85.9 | 102 | 94.9 | 100 | 95 | 96.2 | > 10 | > 10 | – | 0 | 0 | 0.7 | 0 | – | > 10 | > 10
12 | CCCCc1nc(C)c(CC(=S)N(C)C)c(=O)n1Cc1ccc(-c2ccccc2-c2nnn[nH]2)cc1 [fimasartan] | – | – | – | – | – | 98 | 95.8 | 93 | 101 | 106 | 94.9 | 99.5 | 128 | 94.4 | 115 | 94.2 | 89.4 | 90.8 | 96.9 | 113 | 107 | 96.6 | 102 | 101 | 104 | > 10 | > 10 | – | 0 | 0 | 0 | 0 | – | > 10 | > 10
13 | CC(C)[C@H]1CC[C@H](C(=O)N[C@H](Cc2ccccc2)C(=O)O)CC1 [nateglinide] | – | – | – | – | – | 99.7 | 97 | 92.9 | 93.8 | 94.1 | – | – | – | – | – | 92.7 | 95.6 | 105 | 106 | 96.7 | – | – | – | – | – | > 10 | – | – | 0 | – | 0 | – | – | – | > 10
